Experimental data as given in patent US11091428B2 (HAPLOGEN GMBH, priority 2016, dated 2021).
pEC50, pIC50: −log10 of the molar value. Where two headings read alike, the source gives them in different places.

Experiments:
PLA2G16 = target: T1, PLA2G16 (Homo sapiens, UniProt P53816); test: Enzyme activity assay for PLA2G16 (Red/Green BODIPY PC-A2 fluorescence); assay type: biochemical; conditions: His-tagged PLA2G16, 4 min pre-incubation, 2 nM to 50 μM; read-out: IC50 values of the compounds determined in the enzyme activity assay for PLA2G16
T1 construct: Hexa-His (N); made in house; host or cells: E. coli BL21(DE3)
T1 sequence (P53816 1-162): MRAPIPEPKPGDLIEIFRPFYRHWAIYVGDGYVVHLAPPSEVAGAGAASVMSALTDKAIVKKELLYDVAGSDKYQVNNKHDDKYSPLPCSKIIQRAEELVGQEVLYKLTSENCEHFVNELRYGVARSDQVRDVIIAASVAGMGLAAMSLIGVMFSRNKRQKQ
How it was run: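 N-His-tagged human PLA2G16 from E. coli, Ni-NTA purified. Pre-incubated 4 min with compound (2 nM–50 μM final) in pH 8.5 Tris/NaCl buffer with 5 mM glutathione, then BODIPY PC-A2 in DOPC/DOPG/cholesterol vesicles added. Fluorescence (ex 480/em 530 nm) increase over 10 min taken as activity; IC50 by non-linear regression.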

[1] = test system: picornaviruses (CVB1, HRV-A2, HRV-A23, EV-68); test: Anti-picornavirus cytopathic effect (CPE) reduction assay on HeLa H1 cells; assay type: cell-based; conditions: Enterovirus B, HeLa H1, 48 h
How it was run: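 HeLa H1 cells pre-treated 2 h with serially diluted compound in DMEM/2% FBS, then infected at an MOI giving full CPE in 2 days. After 48 h at 37° C, viability read by CellTiterBlue fluorescence (ex 560/em 590 nm), normalised to infected and uninfected vehicle controls; EC50 by non-linear regression, category from mean of four viruses.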

[2] = HeLa H1 cells, 48 h, category from averaging the EC50 values from four picornaviruses (CVB1, HRV-A2, HRV-A23, EV68), read-out: EC50 values of the compounds determined in the anti-picornavirus assay

| SMILES | pIC50 (PLA2G16) | pEC50 [1, 2] | pEC50 ([1]; read-out: EC50 values of the compounds determined in the anti-picornavirus assay, HeLa H1 cells, 48 h, category from averaging the EC50 values from four picornaviruses (CVB1, HRV-A2, HRV-A23, EV68)) |
| --- | --- | --- | --- |
| CCNC(=O)C(=O)[C@H]1CCC(=O)N1Cc1ccc(Cl)cc1 [FP 285, 2-[(2R)-1-[(4-Chlorophenyl)methyl]-5-oxopyrrolidin-2-yl]-N-ethyl-2-oxoacetamide] | > 6.00 | > 6.00 | – |
| COc1cccc(Cl)c1C(=O)NC(C)C(=O)C(=O)NCC1CC1 (centres unmarked) [FP 212, 3-[(2-Chloro-6-methoxyphenyl)formamido]-N-(cyclopropylmethyl)-2-oxobutanamide] | > 6.00 | 5.00 to 6.00 | – |
| CC(C)NC(=O)C(=O)C1CCC(=O)N1Cc1ccccc1 (centres unmarked) [FP 308, 2-(1-Benzyl-5-oxopyrrolidin-2-yl)-2-oxo-N-(propan-2-yl)acetamide] | > 6.00 | > 6.00 | – |
| CC(=O)NCCCCCCNC(=O)C(=O)C1CCC(=O)N1Cc1ccccc1 (centres unmarked) [FP 328, 2-(1-Benzyl-5-oxopyrrolidin-2-yl)-N-(6-acetamidohexyl)-2-oxoacetamide] | > 6.00 | 5.00 to 6.00 | – |
| CNC(=O)C(=O)[C@H]1CCC(=O)N1Cc1ccccc1 [FP 281, 2-[(2R)-1-Benzyl-5-oxopyrrolidin-2-yl]-N-methyl-2-oxoacetamide] | > 6.00 | 5.00 to 6.00 | – |
| C[C@H]1CC(=O)N(Cc2ccccc2)[C@H]1C(=O)C(=O)NCC1CC1 (single isomer, unassigned) [FP 337] | > 6.00 | > 6.00 | – |
| CC(OC1CCCCC1)C(=O)C(=O)NCC1CC1 (centres unmarked) [FP 120, 3-(Cyclohexyloxy)-N-(cyclopropylmethyl)-2-oxobutanamide] | > 6.00 | > 6.00 | – |
| CC(C(=O)C(=O)NCC1CC1)N(C=O)CC1CCN(C(=O)c2ccccc2)CC1 (centres unmarked) [FP 80, 3-{N[(1-Benzoylpiperidin-4-yl)methyl]formamido}-N-(cyclopropylmethyl)-2-oxobutanamide] | 5.00 to 6.00 | < 5.00 | – |
| N#CCCNC(=O)C(=O)[C@H]1CCC(=O)N1Cc1ccccc1 [FP 262, 2-[(2R)-1-Benzyl-5-oxopyrrolidin-2-yl]-N-(2-cyanoethyl)-2-oxoacetamide] | > 6.00 | 5.00 to 6.00 | – |
| COc1ccccc1N(C=O)CCC(=O)C(=O)NCc1cccc(Cl)c1 [FP 115, N-[(3-Chlorophenyl)methyl]-4-[N-(2-methoxyphenyl)formamido]-2-oxobutanamide] | > 6.00 | 5.00 to 6.00 | – |
| CCC1CC(=O)N(Cc2ccccc2)C1C(=O)C(=O)NC1CC1 (centres unmarked) [FP 343, 2-(1-Benzyl-3-ethyl-5-oxopyrrolidin-2-yl)-N-cyclopropyl-2-oxoacetamide] | > 6.00 | > 6.00 | – |
| CC(C)[C@H](C(=O)C(=O)NCC1CC1)N(C=O)CC(C)(C)C (single isomer, unassigned) [FP 32] | > 6.00 | < 5.00 | – |
| CC(C)CNC(=O)C(=O)C(C)N(C=O)CC1CC1 (centres unmarked) [FP 16, 3-[N-(cyclopropylmethyl)formamido]-N-(2-methylpropyl)-2-oxobutanamide] | > 6.00 | 5.00 to 6.00 | – |
| CC(C(=O)C(=O)NCC1CC1)N(C)C(=O)C1CCCCC1 (centres unmarked) [FP 150, 3-(1-Cyclohexyl-N-methylformamido)-N-(cyclopropylmethyl)-2-oxobutanamide] | > 6.00 | 5.00 to 6.00 | – |
| CC(NS(=O)(=O)c1ccccc1Cl)C(=O)C(=O)NCC1CC1 (centres unmarked) [FP 191, 3-(2-Chlorobenzenesulfonamido)-N-(cyclopropylmethyl)-2-oxobutanamide] | > 6.00 | 5.00 to 6.00 | – |
| CC(C(=O)C(=O)NCCOc1ccccc1)N(C=O)C1CCCCC1 (centres unmarked) [FP 109, 3-(N-Cyclohexylformamido)-2-oxo-N-(2-phenoxyethyl)butanamide] | > 6.00 | > 6.00 | – |
| COc1ccccc1N(C=O)C(C)C(=O)C(=O)NCC1CCCCC1 (centres unmarked) [FP 25, N-(Cyclohexylmethyl)-3-[N-(2-methoxyphenyl)formamido]-2-oxobutanamide] | > 6.00 | > 6.00 | – |
| CC(C(=O)C(=O)NCC1CC1)N(Cc1ccccc1)S(C)(=O)=O (centres unmarked) [FP 222, 3-(N-Benzylmethanesulfonamido)-N-(cyclopropylmethyl)-2-oxobutanamide] | > 6.00 | < 5.00 | – |
| CC(C)C(C(=O)C(=O)NCC1CC1)N(C=O)CC1CCOCC1 (centres unmarked) [FP 34, N-(Cyclopropylmethyl)-4-methyl-3-{N-[(oxan-4-yl)methyl]formamido}-2-oxopentanamide] | > 6.00 | 5.00 to 6.00 | – |

| SMILES | pIC50 (PLA2G16) | pEC50 [1, 2] | pEC50 ([1]; read-out: EC50 values of the compounds determined in the anti-picornavirus assay, HeLa H1 cells, 48 h, category from averaging the EC50 values from four picornaviruses (CVB1, HRV-A2, HRV-A23, EV68)) |
| --- | --- | --- | --- |
| CC(NC(=O)c1ccccc1)C(=O)C(=O)NCC1CCCC1 (centres unmarked) [FP 180, N-(Cyclopentylmethyl)-2-oxo-3-(phenylformamido)butanamide] | > 6.00 | 5.00 to 6.00 | – |
| COCCCN(C=O)C(CC(C)C)C(=O)C(=O)NCC1CC1 (centres unmarked) [FP 72, N-(Cyclopropylmethyl)-3-[N-(3-methoxypropyl)formamido]-5-methyl-2-oxohexanamide] | > 6.00 | 5.00 to 6.00 | – |
| CC(NC(=O)c1ccccc1)C(=O)C(=O)NCC1CCC1 (centres unmarked) [FP 181, N-(Cyclobutylmethyl)-2-oxo-3-(phenylformamido)butanamide] | > 6.00 | 5.00 to 6.00 | – |
| CC(C(=O)C(=O)NCc1cccc(Cl)c1)N(C)C=O (centres unmarked) [FP 69, N-[(3-Chlorophenyl)methyl]-3-(N-methylformamido)-2-oxobutanamide] | 5.00 to 6.00 | < 5.00 | – |
| CCNC(=O)C(=O)[C@H]1CCC(=O)N1Cc1ccccc1 [FP 265, 2-[(2R)-1-Benzyl-5-oxopyrrolidin-2-yl]-N-ethyl-2-oxoacetamide] | > 6.00 | > 6.00 | – |
| O=C(NCC1CC1)C(=O)C1CCCC(=O)N1Cc1ccccc1 (centres unmarked) [FP 204, 2-(1-Benzyl-6-oxopiperidin-2-yl)-N-(cyclopropylmethyl)-2-oxoacetamide] | > 6.00 | 5.00 to 6.00 | – |
| NC(=O)c1cccc(CN2C(=O)CCC2C(=O)C(=O)NCC2CCCCC2)c1 (centres unmarked) [FP 249, 3-[(2-{[(Cyclohexylmethyl)carbamoyl]carbonyl}-5-oxopyrrolidin-1-yl)methyl]benzamide] | > 6.00 | – | > 6.00 |
| O=C(NCCc1cnccn1)C(=O)C1CCC(=O)N1Cc1ccccc1 (centres unmarked) [FP 227, 2-(1-Benzyl-5-oxopyrrolidin-2-yl)-2-oxo-N-[2-(pyrazin-2-yl)ethyl]acetamide] | > 6.00 | 5.00 to 6.00 | – |
| CCNC(=O)C(=O)C1CCC(=O)N1Cc1ccc(C)s1 (centres unmarked) [FP 278, N-Ethyl-2-{1-[(5-methylthiophen-2-yl)methyl]-5-oxopyrrolidin-2-yl}-2-oxoacetamide] | > 6.00 | 5.00 to 6.00 | – |
| CC(C(=O)C(=O)NCC1CCCCC1)N(C=O)[C@H]1CC[C@@H](NC(=O)OC(C)(C)C)CC1 (some centres unmarked) [FP 54, tert-Butyl N-[(1s,4s)-4-(N{1-[(cyclohexylmethyl)carbamoyl]-1-oxopropan-2-yl}-formamido)cyclohexyl]carbamate] | > 6.00 | < 5.00 | – |
| CC(C(=O)C(=O)NCC1CCCCC1)N(C(=O)CNS(C)(=O)=O)C1CCCCC1 (centres unmarked) [FP 162, 3-(N-Cyclohexyl-2-methanesulfonamidoacetamido)-N-(cyclohexylmethyl)-2-oxobutanamide] | 4.30 to 5.00 | < 5.00 | – |
| COc1ccccc1N(C=O)C(CC(C)C)C(=O)C(=O)NCc1cccc(Cl)c1 (centres unmarked) [FP 13, N-[(3-Chlorophenyl)methyl]-3-[N-(2-methoxyphenyl)formamido]-5-methyl-2-oxohexanamide] | > 6.00 | > 6.00 | – |
| CC(F)(F)CNC(=O)C(=O)[C@H]1CCC(=O)N1Cc1ccccc1 [FP 295, 2-[(2R)-1-Benzyl-5-oxopyrrolidin-2-yl]-N-(2,2-difluoropropyl)-2-oxoacetamide] | > 6.00 | > 6.00 | – |
| CC(C)C(=O)N(C)CCNC(=O)C(=O)[C@H]1CCC(=O)N1Cc1ccccc1 [FP 333, N-(2-{2-[(2R)-1-Benzyl-5-oxopyrrolidin-2-yl]-2-oxoacetamido}ethyl)-N,2-dimethyl-propanamide] | > 6.00 | 5.00 to 6.00 | – |
| CC(C(=O)C(=O)NCc1cccc(Cl)c1)N(C=O)CC1CCCCC1 (centres unmarked) [FP 18, N-[(3-Chlorophenyl)methyl]-3-[N-(cyclohexylmethyl)formamido]-2-oxobutanamide] | > 6.00 | > 6.00 | – |
| O=C(NC1CCN(C(=O)NC2CCCC2)CC1)C(=O)[C@H]1CCC(=O)N1Cc1ccccc1 [FP 325, 4-{2-[(2R)-1-Benzyl-5-oxopyrrolidin-2-yl]-2-oxoacetamido}-N-cyclopentylpiperidine-1-carboxamide] | > 6.00 | > 6.00 | – |
| CCC(NC(=O)CN1CCCCC1)C(=O)C(=O)NCC1CCCCC1 (centres unmarked) [FP 213, N-(Cyclohexylmethyl)-2-oxo-3-[2-(piperidin-1-yl)acetamido]pentanamide] | > 6.00 | 5.00 to 6.00 | – |
| O=C(NCCO)C(=O)C1CCC(=O)N1Cc1ccc(Cl)cc1 (centres unmarked) [FP 256, 2-{1-[(4-Chlorophenyl)methyl]-5-oxopyrrolidin-2-yl}-N-(2-hydroxyethyl)-2-oxoacetamide] | > 6.00 | 5.00 to 6.00 | – |
